By EC50 is commonly meant the concentration needed to bring the measured effect to its halfway point.

These results are taken from patent US20180271945A1, “UROCORTIN 2 ANALOGS AND USES THEREOF” (Research Development Foundation, priority 2009, published 2018).

The target of data set [1] is T1, CRFR2 (Rattus norvegicus, UniProt P47866).
T1 construct: A7r5 cells, which express CRFR2; endogenous in cells; host or cells: A7r5 cells
The data set can be described thus: stimulation of cAMP accumulation in A7r5 cells. It is filed as cell-based. The procedure: Urocortin 2 precursors were overexpressed in various cell lines, and their function was evaluated. Pancreatic and skin cell lines were infected with mouse urocortin 2 (mUcn 2) lentivirus. The amino acid sequence of mouse urocortin 2 is provided as SEQ ID NO:10. […] The peptide was synthesized and bioactivity was determined by the stimulation of cAMP accumulation in A7r5 cells, which express CRFR2. […] It is possible that R^0mUcn 2 could be further processed by aminopeptidases to mUcn 2(1-38). Number of assays are depicted as a superscript.
The corresponding human analog, R^0hUcn 2, was synthesized.
The EC50S were calculated based on protein determination by immunoassay and chromatographic peak height.
For orientation: Cyclic AMP is a second messenger, typically raised through Gs and lowered through Gi signalling.

A short description of data set [2]: QC reverse phase HPLC (trifluoroacetic acid/acetonitrile) as evidence of solubility/hydrophilicity. Type of data set: physicochemical. The note with it: from reverse phase HPLC retention time. The source says:
A peptide extended with a hydrophilic arginine residue such as R^0hUcn 2 is likely more soluble, and therefore, a better pharmaceutical agent, than hUcn 2(1-38). […]

Where [3] appears, read: A7r5 cells, EC50s calculated based on protein determination by immunoassay and chromatographic peak height, read-out: cAMP A7r5 (EC50).
Setting [4] is: A7r5 cells, which express CRFR2, range in brackets, number of assays as superscript, read-out: EC50 for stimulation of cAMP accumulation in A7r5 cells.

Where two headings read alike, the source gives them in different places. No end group written: not given here. *: point of attachment. Acm = CC(=O)NC*

T1 sequence (P47866 1-431 isoform P47866-2): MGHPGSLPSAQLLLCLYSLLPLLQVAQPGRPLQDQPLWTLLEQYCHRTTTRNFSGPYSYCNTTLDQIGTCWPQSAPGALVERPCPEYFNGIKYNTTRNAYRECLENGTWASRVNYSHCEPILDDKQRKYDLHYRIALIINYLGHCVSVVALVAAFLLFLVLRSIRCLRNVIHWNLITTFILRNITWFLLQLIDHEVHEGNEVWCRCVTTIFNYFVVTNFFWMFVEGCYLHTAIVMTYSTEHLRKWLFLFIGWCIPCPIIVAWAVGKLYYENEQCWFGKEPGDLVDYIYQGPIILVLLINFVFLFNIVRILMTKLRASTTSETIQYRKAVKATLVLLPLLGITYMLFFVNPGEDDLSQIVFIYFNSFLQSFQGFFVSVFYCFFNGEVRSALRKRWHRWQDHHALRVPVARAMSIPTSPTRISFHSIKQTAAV

Turning to “IVLSLDVPIGLLQILLEQARARAAREQATTNARILARVGH-OH [hUcn 2-GH-OH]”, in data set [1] (setting [3]), the EC50 was 2.9 nM.
Turning to “C(Acm)SPTRHPGSRIVLSLDVPIGLLQILLEQARARAAREQATTNARILARVGHC(Acm)-OH [[Cys^1,51 (Acm)]-hUcn 2(1-51)-OH)]”, the EC50 in data set [1] (setting [3]) is 9.5 nM.
Turning to “IVLSLDVPIGLLQILLEQARARAAREQATTNARILARVGHC-OH [hUcn 2-GHC-OH]”, the EC50 in data set [1] (setting [3]) is 13.9 nM.
Consider “RIVLSLDVPIGLLQILLEQARARAAREQATTNARILARV-NH2 [R^0-hUcn 2]”, for which the 50% effective concentration (EC50) in data set [1] (setting [4]) stood at 0.027 nM. Besides, the “hydrophilicity compared with hUcn 2(1-38)” value in data set [2] was “significantly increased hydrophilicity”.
As to “IVLSLDVPIGLLQILLEQARARAAREQATTNARILARVG-OH [hUcn 2-G-OH]”, in data set [1] (setting [3]), the EC50 was 6.3 nM.
“IPTFQLRPQNSPQTTPRPAASESPSAAPTWPWAAQSHCSPTRHPGSRIVLSLDVPIGLLQILLEQARARAAREQATTNARILARV-NH2 [hUcn 2 prohormone]” displayed an EC50 in data set [1] of 2.3 nM.
Turning to “RVILSLDVPIGLLRILLEQARYKAARNQAATNAQILAHV-NH2 [R^0-mUcn 2]”, in data set [1] (setting [4]), the EC50 turned out to be 0.05 nM.
Turning to “IVLSLDVPIGLLQILLEQARARAAREQATTNARILARV-OH [hUcn 2-OH]”, the EC50 in data set [1] (setting [3]) is 90.4 nM.
As to “HPGSRIVLSLDVPIGLLQILLEQARARAAREQATTNARILARV-NH2 [SRP (HPGSR-hUcn 2)]”, the EC50 in data set [1] (setting [3]) was 0.09 nM.
In data set [1], “TPIPTFQLLPQNSLETTPSSVTSESSSGTTTGPSASWSNSKASPYLDTRVILSLDVPIGLLRILLEQARYKAARNQAATNAQILAHV-NH2 [mUcn 2 prohormone]” registered an EC50 of 0.53 nM.
